The record followed here is patent US11203582B2, “Benzamide derivatives for inhibiting endoplasmic reticulum (ER) stress” (The Board of Regents of the University of Oklahoma, priority 2017, dated 2021).

Common to all, as to assay type: cell-based, rat
Data set [1] relates to INS-1 cells. Kind of data set: Cell survival assay, intracellular ATP (CellTiter-Glo), INS-1 cells treated with Tm. The protocol:
A structure-activity-relationship (SAR) study was thus conducted to improve the weak potency of lead compound 1. Newly synthesized or commercially available compounds were tested for their β-cell-protective activity against ER stress in rat INS-1 β-cells. […] The maximum activities and the concentrations that reach half-maximal activity (EC50) of the compounds were evaluated by the degree of increase in viability of INS-1 cells co-treated with the compounds in the presence of Tm compared with Tm treatment alone. Maximum activity value in the tables is reported as % rescue from Tm (0.1 μg/mL)-induced reduction of cell viability. The values for Tm treatment alone and control (DMSO, without Tm) treatment are designated as 0% and 100%, respectively in all tables. EC50 values (the concentrations that reach half-maximal activity) for INS-1 cell viability were calculated with GraphPad Prism from the data of ten 2-fold serial titration points in all tables. All experiments were performed in triplicate in all tables.
INS-1 cells were cultured in RPMI 1640 (Corning, N.Y., USA) supplemented with 10% FBS (Atlanta Biologicals, Norcross, Ga.), HEPES (10 mM, Life Technologies, CA, USA), sodium pyruvate (1 mM, Corning), 2-mercaptoethanol (50 μM, Sigma, St Louis, Mo., USA) and antibiotics (100 UI/mL penicillin and 100 μg/mL streptomycin, Corning). βTC6 cells were cultured in DMEM (Corning) with 15% FBS, sodium pyruvate (1 mM, Corning), non-essential amino acids (1 mM, Thermo, Ill., USA), GlutaMAX (1 mM, Life Technologies) and antibiotics (100 UI/mL penicillin and 100 μg/mL streptomycin). All cells were grown at 37° C. in a humidified 5% CO2 atmosphere.
INS-1 cells or βTC6 cells were seeded at 3×10^3 cells/well in a 384-well plate and treated with compounds at the indicated concentrations. After 3 d treatment, the medium was aspirated and 20 μL/well of CellTiter-Glo reagent (Promega, WI, USA) was added for the detection of intracellular ATP levels. Cell viability was measured with an EnVision multilabel plate reader (PerkinElmer, MA, USA).

In data set [2] the test system is cleaved PARP. Kind of data set: Western blotting of cleaved PARP in Tm-treated INS-1 cells. Conditions: Tm co-treatment, 24 h. The protocol:
(§1) To determine whether the increase in β-cell viability following treatment with 13d is caused by a suppression of apoptotic cell death, several apoptosis-related makers were measured. First, levels of cleaved caspase-3 and cleaved PARP were assayed by Western blotting. Caspase-3, a member of executioner caspases activated by cleavage, plays essential roles in initiating apoptotic signaling and executing the final stages of cell death, whereas the nuclear enzyme poly (ADP-ribose) polymerase (PARP) plays an important role in a number of cellular processes involving DNA repair and cell death. […] However, upon severe ER stress, caspase 3 undergoes proteolytic cleavage to produce two subunits that dimerize to form the active enzyme, which in turns cleaves PARP. […] A further assessment of apoptotic INS-1 cell death was performed using TUNEL assays to detect nuclear DNA fragmentation (a consequence of cell apoptosis) in situ.
(§2) INS-1 cells were seeded in 60-mm dishes at 8×10^5 cells/dish and treated for the indicated times. Cells were then washed with PBS and lysed with lysis buffer (Cell Signaling Technology, Danvers, Mass.) containing EDTA (Thermo, Ill.) and phosphatase inhibitors (Thermo). Aliquots of 20 μg total protein were separated on 7% SDS-PAGE gels (Life Technologies) and transferred to PVDF membranes (Life Technologies). […]
Background: A western blot detects proteins with antibodies after separation by electrophoresis.

Data set [3] deals with cleaved caspase-3. Kind of data set: Western blotting of cleaved caspase-3 in Tm-treated INS-1 cells. Conditions: Tm co-treatment, 24 h. The protocol: as §1, §2
The test system of data set [4] is INS-1 cells. Kind of data set: MTT cell viability assay, INS-1 cells treated with Tm. Conditions: Tm 0.1 μg/mL, 72 h, FIG. 2B. From the text:
The measurement of intracellular ATP level was use as a surrogate assay for cell viability. […] To confirm the authenticity of 13d's protective effect on β-cell viability (not simply an increase in ATP-specific measurement), we used the MTT assay, which measures the activity of NAD(P)H-dependent cellular oxidoreductase enzymes, as an orthogonal method to measure cell viability. […] To determine whether the protective effect of 13d on β-cells is specific to INS-1 cells, another β-cell line, βTC6, was used. […] In addition, compound 13d on its own had no effect on β-cell viability in both cell lines (FIG. 2C-D).
INS-1 cells or βTC6 cells were seeded at 3×10^3 cells/well in a 384-well plate and treated with compounds at the indicated concentrations. After 3 d treatment, the medium was aspirated and 10 μl of MTT reagent (Cayman Chemical, MI, USA, prepared according to manufacturer's instruction) to each well was added and mixed gently for one minute on an orbital shaker. The cells were then incubated for three hours at 37° C. in a CO2 incubator. After incubation, add 100 μl of crystal dissolving solution to each well, and incubate for 4 hours in a 37° C. CO2 incubator. Viability will be measured for the absorbance to each sample at 570 nm using EnVision multilabel plate reader (PerkinElmer, MA, USA).

One may read the EC50 as the concentration giving half of the maximal effect.

Like-named read-outs stand apart in the source and are kept apart here.

On to `O=C(NCc1ccc(C(F)(F)F)cc1)c1cccc(CN2CCCCC2)c1` [Compound 13d, N-(4-trifluoromethylphenmethyl)-3-(N-piperidinyl)methyl benzamide], for which the “range of concentrations retaining maximum β-cell-protective activity” value in data set [1] (INS-1 cells, Tm 0.1 μg/mL, 72 h, FIG. 2A) is 0.16 to 20 µM. The “maximum activity (β-cell-protective activity)” value in data set [1] (INS-1 cells, Tm-induced ER stress) is on record as about 100%. The EC50 in data set [1] (INS-1 cells, Tm-induced ER stress, read-out: EC50) is 32 nM; in data set [1] (running text b108, read-out: EC50 value against ER stress), about 30 nM. The “effect of compound on its own on β-cell viability” value in data set [1] (INS-1 cells, no Tm, 72 h, FIG. 2D) is “no effect”. In addition, the “Maximum activity (% rescue)” value in data set [1] (Table 5, INS-1 cells, Tm 0.1 μg/mL, 72 h, Tm alone 0%, DMSO control 100%) was 97% ± 8%. Besides, the “viability of INS-1 β-cells under Tm treatment (intracellular ATP)” value in data set [1] (Tm 0.1 μg/mL, 72 h, FIG. 2A) was “rescued the viability of INS-1 β-cells under Tm treatment in a dose-dependent manner”. Also, in data set [2], the “Tm-induced cleavage of PARP” value is given as “completely or significantly diminished”. Also, in data set [3], the “Tm-induced cleavage of caspase-3” value is “completely or significantly diminished”. Besides, the “viability of INS-1 cells under Tm treatment (MTT)” value in data set [4] is listed as “restored the viability of INS-1 cells”.
